Experiments:
[1] = excess molar enthalpy (molar enthalpy of mixing); xn = mol fraction of the nth substance listed; settings: 101 kPa, Liquid, Calvet calorimetry
[2] = molar heat capacity at constant pressure; xn = mol fraction of the nth substance listed; settings: 101.3 kPa, Liquid, Small sample (50 mg) DSC

CCOS(=O)(=O)[O-].CCn1cc[n+](C)c1 [1-ethyl-3-methylimidazolium ethyl sulfate] + O
Settings	excess molar enthalpy [kcal/mol]	molar heat capacity at constant pressure [J/K/mol]
[1], 313.14 K, x2 = 0.2496	-0.109	–
[1], 313.14 K, x2 = 0.2497	-0.11	–
[1], 313.14 K, x2 = 0.4936	-0.183	–
[1], 313.14 K, x2 = 0.4951	-0.184	–
[1], 313.14 K, x2 = 0.7491	-0.231	–
[1], 313.14 K, x2 = 0.7495	-0.233	–
[1], 323.12 K, x2 = 0.2425	-0.116	–
[1], 323.12 K, x2 = 0.2486	-0.114	–
[1], 323.12 K, x2 = 0.4979	-0.189	–
[1], 323.12 K, x2 = 0.4991	-0.189	–
[1], 323.12 K, x2 = 0.7464	-0.221	–
[1], 323.12 K, x2 = 0.7481	-0.226	–
[1], 333.11 K, x2 = 0.2483	-0.119	–
[1], 333.11 K, x2 = 0.2496	-0.121	–
[1], 333.11 K, x2 = 0.496	-0.191	–
[1], 333.11 K, x2 = 0.4974	-0.189	–
[1], 333.11 K, x2 = 0.7476	-0.218	–
[1], 333.11 K, x2 = 0.7484	-0.218	–
[1], 348.12 K, x2 = 0.2492	-0.125	–
[1], 348.12 K, x2 = 0.2499	-0.125	–
[1], 348.12 K, x2 = 0.4948	-0.191	–
[1], 348.12 K, x2 = 0.498	-0.191	–
[1], 348.12 K, x2 = 0.7477	-0.199	–
[1], 348.12 K, x2 = 0.7483	-0.199	–
[2], 283.15 K, x2 = 0	–	365
[2], 283.15 K, x2 = 0.212	–	294
[2], 283.15 K, x2 = 0.4079	–	235
[2], 283.15 K, x2 = 0.5925	–	179
[2], 283.15 K, x2 = 0.766	–	142
[2], 283.15 K, x2 = 0.8495	–	115
[2], 283.15 K, x2 = 0.9282	–	95
[2], 283.15 K, x2 = 0.9684	–	83
[2], 283.15 K, x2 = 0.9916	–	78
[2], 293.15 K, x2 = 0	–	371
[2], 293.15 K, x2 = 0.212	–	297
[2], 293.15 K, x2 = 0.4079	–	239
[2], 293.15 K, x2 = 0.5925	–	184
[2], 293.15 K, x2 = 0.766	–	145
[2], 293.15 K, x2 = 0.8495	–	118
[2], 293.15 K, x2 = 0.9282	–	96
[2], 293.15 K, x2 = 0.9684	–	85
[2], 293.15 K, x2 = 0.9916	–	78
[2], 303.15 K, x2 = 0	–	380
[2], 303.15 K, x2 = 0.212	–	304
[2], 303.15 K, x2 = 0.4079	–	245
[2], 303.15 K, x2 = 0.5925	–	190
[2], 303.15 K, x2 = 0.766	–	149
[2], 303.15 K, x2 = 0.8495	–	122
[2], 303.15 K, x2 = 0.9282	–	98
[2], 303.15 K, x2 = 0.9684	–	86
[2], 303.15 K, x2 = 0.9916	–	79
[2], 313.15 K, x2 = 0	–	386
[2], 313.15 K, x2 = 0.212	–	309
[2], 313.15 K, x2 = 0.4079	–	249
[2], 313.15 K, x2 = 0.5925	–	193
[2], 313.15 K, x2 = 0.766	–	152
[2], 313.15 K, x2 = 0.8495	–	124
[2], 313.15 K, x2 = 0.9282	–	100
[2], 313.15 K, x2 = 0.9684	–	87
[2], 313.15 K, x2 = 0.9916	–	79
[2], 323.15 K, x2 = 0	–	392
[2], 323.15 K, x2 = 0.212	–	314
[2], 323.15 K, x2 = 0.4079	–	253
[2], 323.15 K, x2 = 0.5925	–	197
[2], 323.15 K, x2 = 0.766	–	154
[2], 323.15 K, x2 = 0.8495	–	126
[2], 323.15 K, x2 = 0.9282	–	101
[2], 323.15 K, x2 = 0.9684	–	88
[2], 323.15 K, x2 = 0.9916	–	79
[2], 333.15 K, x2 = 0	–	397
[2], 333.15 K, x2 = 0.212	–	319
[2], 333.15 K, x2 = 0.4079	–	256
[2], 333.15 K, x2 = 0.5925	–	201
[2], 333.15 K, x2 = 0.766	–	157
[2], 333.15 K, x2 = 0.8495	–	127
[2], 333.15 K, x2 = 0.9282	–	102
[2], 333.15 K, x2 = 0.9684	–	88
[2], 333.15 K, x2 = 0.9916	–	80
[2], 343.15 K, x2 = 0	–	403
[2], 343.15 K, x2 = 0.212	–	324
[2], 343.15 K, x2 = 0.4079	–	260
[2], 343.15 K, x2 = 0.5925	–	204
[2], 343.15 K, x2 = 0.766	–	158
[2], 343.15 K, x2 = 0.8495	–	129
[2], 343.15 K, x2 = 0.9282	–	103
[2], 343.15 K, x2 = 0.9684	–	89
[2], 343.15 K, x2 = 0.9916	–	80

CCn1cc[n+](C)c1.O=S(=O)([O-])C(F)(F)F [1-ethyl-3-methylimidazolium trifluoromethanesulfonate] + O
Settings	excess molar enthalpy [kcal/mol]	molar heat capacity at constant pressure [J/K/mol]
[1], 313.13 K, x2 = 0.2487	0.168	–
[1], 313.13 K, x2 = 0.2495	0.168	–
[1], 313.13 K, x2 = 0.4958	0.269	–
[1], 313.13 K, x2 = 0.4972	0.269	–
[1], 313.13 K, x2 = 0.7477	0.242	–
[1], 323.12 K, x2 = 0.2476	0.166	–
[1], 323.12 K, x2 = 0.2495	0.167	–
[1], 323.12 K, x2 = 0.4959	0.276	–
[1], 323.12 K, x2 = 0.4969	0.275	–
[1], 323.12 K, x2 = 0.7471	0.259	–
[1], 323.12 K, x2 = 0.7474	0.258	–
[1], 333.13 K, x2 = 0.2482	0.167	–
[1], 333.13 K, x2 = 0.2485	0.167	–
[1], 333.13 K, x2 = 0.495	0.283	–
[1], 333.13 K, x2 = 0.4986	0.284	–
[1], 333.13 K, x2 = 0.7477	0.277	–
[1], 333.13 K, x2 = 0.7479	0.276	–
[1], 348.12 K, x2 = 0.2497	0.168	–
[1], 348.12 K, x2 = 0.2514	0.169	–
[1], 348.12 K, x2 = 0.4967	0.297	–
[1], 348.12 K, x2 = 0.4985	0.298	–
[1], 348.12 K, x2 = 0.748	0.308	–
[1], 348.12 K, x2 = 0.7481	0.307	–
[2], 283.15 K, x2 = 0	–	353
[2], 283.15 K, x2 = 0.2259	–	283
[2], 283.15 K, x2 = 0.4351	–	226
[2], 283.15 K, x2 = 0.6152	–	181
[2], 283.15 K, x2 = 0.7835	–	135
[2], 283.15 K, x2 = 0.8614	–	114
[2], 283.15 K, x2 = 0.9353	–	94
[2], 283.15 K, x2 = 0.9712	–	80
[2], 283.15 K, x2 = 0.9924	–	76
[2], 293.15 K, x2 = 0	–	358
[2], 293.15 K, x2 = 0.2259	–	287
[2], 293.15 K, x2 = 0.4351	–	230
[2], 293.15 K, x2 = 0.6152	–	184
[2], 293.15 K, x2 = 0.7835	–	137
[2], 293.15 K, x2 = 0.8614	–	115
[2], 293.15 K, x2 = 0.9353	–	95
[2], 293.15 K, x2 = 0.9712	–	81
[2], 293.15 K, x2 = 0.9924	–	77
[2], 303.15 K, x2 = 0	–	366
[2], 303.15 K, x2 = 0.2259	–	294
[2], 303.15 K, x2 = 0.4351	–	236
[2], 303.15 K, x2 = 0.6152	–	189
[2], 303.15 K, x2 = 0.7835	–	140
[2], 303.15 K, x2 = 0.8614	–	118
[2], 303.15 K, x2 = 0.9353	–	97
[2], 303.15 K, x2 = 0.9712	–	83
[2], 303.15 K, x2 = 0.9924	–	78
[2], 313.15 K, x2 = 0	–	371
[2], 313.15 K, x2 = 0.2259	–	298
[2], 313.15 K, x2 = 0.4351	–	239
[2], 313.15 K, x2 = 0.6152	–	191
[2], 313.15 K, x2 = 0.7835	–	142
[2], 313.15 K, x2 = 0.8614	–	120
[2], 313.15 K, x2 = 0.9353	–	98
[2], 313.15 K, x2 = 0.9712	–	83
[2], 313.15 K, x2 = 0.9924	–	78
[2], 323.15 K, x2 = 0	–	376
[2], 323.15 K, x2 = 0.2259	–	302
[2], 323.15 K, x2 = 0.4351	–	242
[2], 323.15 K, x2 = 0.6152	–	193
[2], 323.15 K, x2 = 0.7835	–	144
[2], 323.15 K, x2 = 0.8614	–	122
[2], 323.15 K, x2 = 0.9353	–	99
[2], 323.15 K, x2 = 0.9712	–	84
[2], 323.15 K, x2 = 0.9924	–	78
[2], 333.15 K, x2 = 0	–	380
[2], 333.15 K, x2 = 0.2259	–	306
[2], 333.15 K, x2 = 0.4351	–	245
[2], 333.15 K, x2 = 0.6152	–	195
[2], 333.15 K, x2 = 0.7835	–	146
[2], 333.15 K, x2 = 0.8614	–	123
[2], 333.15 K, x2 = 0.9353	–	99
[2], 333.15 K, x2 = 0.9712	–	85
[2], 333.15 K, x2 = 0.9924	–	79
[2], 343.15 K, x2 = 0	–	384
[2], 343.15 K, x2 = 0.2259	–	311
[2], 343.15 K, x2 = 0.4351	–	249
[2], 343.15 K, x2 = 0.6152	–	197
[2], 343.15 K, x2 = 0.7835	–	148
[2], 343.15 K, x2 = 0.8614	–	125
[2], 343.15 K, x2 = 0.9353	–	100
[2], 343.15 K, x2 = 0.9712	–	85
[2], 343.15 K, x2 = 0.9924	–	79

— the NIST ThermoML archive (doi:10.1021/je800248w)
